Source: patent US10639376B2, “Pharmaceutical compositions having improved storage stability” (ALKERMES PHARMA IRELAND LIMITED, priority 2012, dated 2020)

Assay: Solubility of Compound 1 in vehicles with various amounts of sorbitan monolaurate
Format: physicochemical
Conditions: from trend of Compound 1 concentration as a function of pH at a given SML concentration; read-out: estimated pKa
Protocol: The solubility of Compound 1 was determined in vehicles containing 10 mM pH 7 phosphate buffer, 0.2% polysorbate 20 (PS), 0.8% saline, and various amounts of sorbitan monolaurate (SML). […] At a given SML concentration, the trend of Compound 1 concentration as a function of pH is consistent with an estimated pKa of ˜7. […] The degradation of dissolved Compound 1 was further followed in the drug vehicle containing 0.50% SML and 0.2% PS.

pKa: ~7
Compound: CCCCCCCCCCCC(=O)OCN1C(=O)CCc2ccc(OCCCCN3CCN(c4cccc(Cl)c4Cl)CC3)cc21 [Compound 1]
